PubChem BioAssay AID1082 (University of Pittsburgh Molecular Library Screening Center, 2008)
“And” between values parts separate entries of the source, which are not always exact repeats. Identical values can stand only once. The source made the active and inactive calls. The rule behind the calls is not given here.

Molecular target: Serine/threonine-protein kinase PLK1 (Homo sapiens) (UniProt P53350)
Assay: PLK1 polo box domain binding inhibitors, SAR follow-up, biochemical, fluorescence polarization, synthesized analogs, IC50 (AID 1082)
Details: PLK1 PBD phosphopeptide binding

Chain of Serine/threonine-protein kinase PLK1 (Homo sapiens) (P53350 whole entry, looked up, the tested form may be a part): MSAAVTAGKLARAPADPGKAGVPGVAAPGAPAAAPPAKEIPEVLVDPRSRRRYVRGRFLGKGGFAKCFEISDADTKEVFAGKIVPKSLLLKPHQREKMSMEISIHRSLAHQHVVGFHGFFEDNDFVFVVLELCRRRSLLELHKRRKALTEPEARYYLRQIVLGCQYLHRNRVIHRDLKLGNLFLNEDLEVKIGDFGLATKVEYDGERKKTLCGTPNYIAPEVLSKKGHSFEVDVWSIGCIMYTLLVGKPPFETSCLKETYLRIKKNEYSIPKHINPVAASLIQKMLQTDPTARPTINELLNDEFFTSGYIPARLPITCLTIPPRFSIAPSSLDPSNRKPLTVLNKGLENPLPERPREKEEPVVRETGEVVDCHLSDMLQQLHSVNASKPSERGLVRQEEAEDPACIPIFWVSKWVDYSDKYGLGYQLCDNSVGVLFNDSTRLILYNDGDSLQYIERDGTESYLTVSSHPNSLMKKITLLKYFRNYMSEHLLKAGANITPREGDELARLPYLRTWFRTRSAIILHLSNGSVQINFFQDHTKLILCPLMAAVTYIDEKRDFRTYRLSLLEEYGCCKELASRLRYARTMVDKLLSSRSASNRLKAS

| Structure (SMILES) | IC50 |
| --- | --- |
| CCOC(=O)c1ccccc1NC(=O)c1c(O)[nH]c(=S)[nH]c1=O | > 50 µM (inactive) |
| Cn1c2c(c(=O)n(C)c1=O)C(c1ccc(C(F)(F)F)cc1)CC(=O)N2 (stereo not given) | > 50 µM (inactive) |
| CCOC(=O)c1ccc(NC(=O)c2c(O)[nH]c(=O)[nH]c2=O)cc1 | > 50 µM (inactive) and 2.89 µM |
| Cc1ccc(N=Cc2c(O)n(-c3ccc(C)cc3)c(=O)[nH]c2=O)cc1 | > 50 µM (inactive) |
| CCOc1ccc(NC(=O)c2c(N)n(C)c(=O)[nH]c2=O)cc1 | > 50 µM (inactive) |
| CCOC(=O)CCCCCNC(=O)c1c(N)n(C)c(=O)n(C)c1=O | > 50 µM (inactive) |
| CCC(=O)Oc1ccc(C(=O)Nc2c[nH]c(=O)[nH]c2=O)cc1 | > 50 µM (inactive) |
| O=C(N/N=C/c1c(O)[nH]c(=O)[nH]c1=O)c1ccncc1 | > 50 µM (inactive) |
| Cn1c(N)c(C(=O)Nc2ccccc2)c(=O)[nH]c1=O | > 50 µM (inactive) |
| CCCCOC(=O)c1ccc(NC(=O)c2c(N)n(C)c(=O)[nH]c2=O)cc1 | > 50 µM (inactive) |
| CCOC(=O)c1ccc(NC(=O)c2c(N)n(C)c(=O)[nH]c2=O)cc1 | > 50 µM (inactive) |
| COc1ccc(/C=C/C(=O)c2c(O)n(CCC3=CCCCC3)c(=O)[nH]c2=O)cc1 | > 50 µM (inactive) |
| CCOC(=O)c1ccc(NC(=O)c2c(N)n(C)c(=O)n(C)c2=O)cc1 | > 50 µM (inactive) |
| O=c1[nH]c(=S)[nH]c(O)c1/C=N/Nc1ccccc1 | > 50 µM (inactive) |
| Cn1c(N)c(S(=O)(=O)Nc2ccccc2)c(=O)n(C)c1=O | > 50 µM (inactive) |
| COC(=O)c1ccccc1NC(=O)c1c(O)c2c([nH]c1=O)CCCC2 | > 50 µM (inactive) |
| O=C(Nc1ccccc1)c1c(O)[nH]c(=S)[nH]c1=O | > 50 µM (inactive) |
| CCOC(=O)c1ccc(NC(=O)c2c(N)n(Cc3ccccc3)c(=O)[nH]c2=O)cc1 | > 50 µM (inactive) |

| Structure (SMILES) | IC50 |
| --- | --- |
| CCOC(=O)c1cccc(NC(=O)c2c(N)n(C)c(=O)[nH]c2=O)c1 | > 50 µM (inactive) |
| CC1(C)CC(=O)C(C2(O)C(=O)NC(=O)NC2=O)=C(O)C1 | > 50 µM (inactive) |
| O=c1[nH]c(NC2CCCCC2)c([N+](=O)[O-])c(=O)[nH]1 | > 50 µM (inactive) |
| CCOc1ccc(NC(=O)c2c(O)[nH]c(=O)[nH]c2=O)cc1 | > 50 µM (inactive) |
| Cc1ccc(NC(=O)c2c[nH]c(=O)[nH]c2=O)cc1 | > 50 µM (inactive) |
| CCCCOC(=O)c1ccc(NC(=O)c2c(O)[nH]c(=O)[nH]c2=O)cc1 | > 50 µM (inactive) |
| CCOC(=O)c1ccc(NC(=O)c2c(NCc3ccccc3)[nH]c(=O)[nH]c2=O)cc1 | > 50 µM (inactive) |
| CCOC(=O)c1cccc(NC(=O)c2c(O)[nH]c(=O)[nH]c2=O)c1 | > 50 µM (inactive) |
| CCOC(=O)c1ccc(NS(=O)(=O)c2c(N)[nH]c(=O)[nH]c2=O)cc1 | > 50 µM (inactive) |
| O=C(Nc1ccccc1)c1c(O)[nH]c(=O)[nH]c1=O | > 50 µM (inactive) |
| CCCOc1ccc(C(=O)Nc2c[nH]c(=O)[nH]c2=O)cc1 | > 50 µM (inactive) |
| CC(C)c1ccc(NC(=O)COC(=O)c2c[nH]c(=O)[nH]c2=O)cc1 | > 50 µM (inactive) |
| CCOC(=O)c1ccccc1NC(=O)c1c(O)[nH]c(=O)[nH]c1=O | > 50 µM (inactive) |
| CCOC(=O)c1cccc(NC(=O)c2c(NCc3ccccc3)[nH]c(=O)[nH]c2=O)c1 | > 50 µM (inactive) |
| CCOC(=O)c1ccccc1NC(=O)c1c(N)n(C)c(=O)[nH]c1=O | > 50 µM (inactive) |
| CCOC(=O)c1ccc(NS(=O)(=O)c2c(N)n(C)c(=O)n(C)c2=O)cc1 | > 50 µM (inactive) |
| Cn1cc(C(=O)CNc2ccccc2)c(=O)n(C)c1=O | > 50 µM (inactive) |
